# Experimental data published in patent publication US9072751B2, “Na/K-ATPase ligand” (priority 2006, dated 2015).
# Assays:
# Na/K-ATPase = biological target: T1, Na/K-ATPase (Rattus norvegicus, UniProt P06685); assay: Ouabain sensitive 86Rb uptake in cardiac fibroblasts; format: cell-based
# T1 construct: In vitro studies were then pursued with cultured isolated cardiac fibroblasts; endogenous in cells; host or cells: primary isolated cardiac fibroblasts in culture
# Description: To further examine the molecular basis of this cardiac fibrosis, isolated cardiac fibroblasts were subjected to increase doses of MBG (10^−10, 10^−9, and 10^−8 M). […] Using collagenase digestion, we observed that the vast majority of the proline incorporation was into collagen. Using standardized RT-PCR, we observed a doubling of mRNA for collagen-1 at 24 hours in response to 10 nM of MBG.
# Representative Western blot for procollagen and quantitative densitometric data obtained in response to different doses of (a) MBG (all N=10), (b) MBG 10 nM contrasted with different doses of ouabain (0.1 to 100 nM) and digoxin (10 nM; all N=8). c, ouabain sensitive Rb uptake as a function of MBG and ouabain concentration (N=4 at each concentration for both MBG and ouabain; data expressed as fraction of control). d, relative proline incorporation in the supernatant and matrix, both will and without collagenase digestion (total). Each group (controls and different doses of MBG) contains N=7 replicants. The difference between the total and after collagenase digestion is reported as collagen. […] Bars on quantitative graphs represent the mean.+−.SEM. *P<0.05 and **P<0.01 vs control.
# [1] = Plasma MBG and aldosterone 4 weeks after MBG minipump infusion in rats; format: in vivo, Sprague-Dawley rats; settings: mean ± SEM
# Description: (§1) Male, Sprague-Dawley rats were used for all of the studies. All of the animal experimentation described in the article was conducted in accordance with the National Institutes of Health Guide for the Care and use of Laboratory Animals using protocols approved by the Medical University of Ohio Institutional Animal Use and Care Committee.
# (§2) Briefly, Sprague-Dawley rats weighing.apprxeq.250 g at the time of surgery were subjected to either sham surgery with no MBG infusion (Sham), sham surgery with placement of a minipump infusing MBG at 10 μg/kg per day (MBG), PNx, and PNx after immunization against MBG (PNx-IM). MBG of extremely high purity (>99%) was isolated from the venom of Bufa marinas by Kennedy et al. In addition to these maneuvers, a group of PNx animals was subjected to adrenalectomy as well (PNx-ADx).
# (§3) (determined after extraction on a C-18 column using DELPHIA as described previously), aldosterone (determined with ELISA kit 10004377, Cayman Chemical) and cardiac immunohistochemistry (vida infra) were assessed 4 weeks after surgery.
# [2] = tested on: left ventricular cardiac tissue; assay: Cardiac tissue fibrosis, immunohistochemistry and Western blot after MBG infusion; format: in vivo, Sprague-Dawley rats
# Description: as §2, §3
# Western blot analysis was performed on protein isolated from tissue homogenates, cell culture whole cell lysates, or nuclear extracts as described previously.
# Immunization against MBG attenuated these increases. Western blot analysis confirmed that PNx and MBG had 2 to 2.5 times the expression of procollagin-1 and a smooth muscle actin seen with sham-operated controls, whereas PNx-IM expression of both procollagen-1 and a smooth muscle actin was substantially less than that seen with PNx.
# Other data includes a representative pressure-volume loops obtained during vena cava occlusion from rats subjected to sham surgery (Sham), PNx, MBG infusion (MBG), and PNx after immunization against an MBG-albumin conjugate (PNx-IM). Regression lines fit to the end systolic pressure volume relationship (ESPVR, dotted line) and the end diastolic pressure volume relationship (EDPVR, solid line). B, ventricular cross-sectional areas determined from trichrome stains of tissue obtained from Sham, PNx, MBG, and PNx-IM animals (each group: N=8 animals, .apprxeq.100 measurements averaged to determine mean for each animal; data shown as the group mean.+−.SEM using N−8). Representative immunohistochemistry images of cardiac tissues stained for (c) collagen-1 and (d) a smooth muscle actin (aSMA). Counterstain for both c and d was hematoxlyn. Western blot and corresponding densitometric analysis for (e) procollagen-1 and (f) aSMA. Note that both collagen-1 and aSMA staining are much more intense in the PNx and MBG groups compared with Sham, whereas the PNx-IM staining is similar to Sham. Similarly, procollagen and aSMA expression are substantially higher in PNx and MBG animals compared with Sham, whereas immunization against MBG (PNx-IM) attenuated the changes seen with PNx. Data for e and f are derived from N=6 experiments in each group and shown as mean.+−.SEM. Sham refers to hearts isolated from control animals, PNx refers to PNx, MBG refers to MBG supplemented, and PNx-IM refers to animals immunized against MGB before PNx surgery. *P<0.05, **P<0.01 vs Sham, #P<0.01 vs PNx.
# Sprague-Dawley rats = assay: Blood pressure, left ventricular hemodynamics (Millar catheter) and heart size 4 weeks after MBG infusion; format: in vivo
# Description: as §1, §2, §3
# In the current in vivo studies we observed that MBG levels were increased in PNx- and MBG-treated rats compared with sham-operated controls. […] Using the Millar pressure/volume sensor catheter rather than echocardiography in our previous report, we observed that PNx induced decreases in end systolic volume and end diastolic volume, as well as increased ejection fraction compared with sham-operated controls. The end systolic volume and end diastolic volume were greater, and the ejection factor values were lower in PNX-IM as compared with PNx. […] Using pressure volume loops generated during vena cava occlusions, we noted that the end diastolic pressure volume relationship (an inverse measurement of passive compliance) was increased in PNx- and MBG-treated animals compared with controls, whereas […] ha a lower end diastolic pressure volume relationship than PNx.
# [3] = MBG infusion, 4 weeks, mean ± SEM
smiles,measurement,setting,value
"C[C@]12CC[C@H](O)C[C@@]1(O)CC[C@@H]1[C@@H]2CC[C@]2(C)[C@@H](c3ccc(=O)oc3)C[C@H]3O[C@]132 [MBG, marinobufagenin]",Threshold for inducing collagen expression relative to doses with detectable effects on 86Rb uptake,Na/K-ATPase,log units below
same,Plasma MBG,[1]; MBG infusion 10 μg/kg per day by minipump,484 ± 47 pmol/L
same,Plasma aldosterone,[1]; MBG infusion 10 μg/kg per day,205 ± 35 pg/mL
same,Cardiac fibrosis,[2],caused cardiac fibrosis
same,Collagen-1 and a smooth muscle actin staining (immunohistochemistry),[2]; heart tissue,marked increases
same,Expression of a smooth muscle actin relative to sham-operated controls (Western blot),[2]; heart tissue,2 to 2.5 times
same,Expression of procollagin-1 relative to sham-operated controls (Western blot),[2]; heart tissue,2 to 2.5 times
same,Ejection fraction,Sprague-Dawley rats; [3],68 ± 2 %
same,End diastolic volume,Sprague-Dawley rats; [3],162 ± 14 µL
same,End systolic volume,Sprague-Dawley rats; [3],60 ± 6 µL
same,Heart rate (Tall cuff measurements),Sprague-Dawley rats; [3],367 ± 9 bpm
same,Heart weight/body weight ratio,Sprague-Dawley rats; [3],2.8 ± 0.1 g/kg
same,Systolic blood pressure (Tall cuff measurements),Sprague-Dawley rats; [3],136 ± 4 mm Hg
same,EDPVRX1000,"Sprague-Dawley rats; end diastolic pressure volume relationship, MBG infusion, 4 weeks, mean ± SEM",41 ± 6 mm Hg/μL
same,τ,"Sprague-Dawley rats; time constant of isovolumic relaxation, MBG infusion, 4 weeks, mean ± SEM",11.3 ± 0.3 ms
same,Ventricular myocyte cross-sectional area,"Sprague-Dawley rats; trichrome images, MBG infusion vs sham",marked increases
